Data taken from patent US11319299B2, “Substituted carboxamides as inhibitors of WDR5 protein-protein binding” (PROPELLON THERAPEUTICS INC., priority 2016, dated 2022).

The molecules below were run against WDR5 (Homo sapiens (Human), UniProt P61964) (assay: Surface Plasmon Resonance (SPR) assay, KD and residence time). Conditions: surface plasmon resonance (SPR) assay; read-out: WDR5 binding affinity (KD).
Type: binding

Row | Kd | Structure (SMILES)
1 | 5.76 nM | C[C@@H]1CN(c2cc(F)c(C3=CCN(CC4CCOCC4)CC3)cc2NC(=O)c2c[nH]c(=O)cc2C(F)(F)F)C[C@H](C)N1C [Example 167, N-[4-fluoro-5-[1-(oxan-4-ylmethyl)-3,6-dihydro-2H-pyridin-4-yl]-2-[(3R,5S)-3,4,5-trimethylpiperazin-1-yl]phenyl]-6-oxo-4-(trifluoromethyl)-1H-pyridine-3-carboxamide]
2 | 3.18 nM | CC1CN(c2cc(F)c(-c3cnc(C#N)nc3)cc2NC(=O)c2cn(C)c(=O)cc2C(F)F)CCN1C (stereo in doubt) [Example 218, N-[5-(2-cyanopyrimidin-5-yl)-4-fluoro-2-[(3R)-3,4-dimethylpiperazin-1-yl]phenyl]-4-(difluoromethyl)-1-methyl-6-oxopyridine-3-carboxamide]
3 | 14.8 nM | CN(C)[C@@H]1CCN(c2cc(F)c(-c3cnc(N4CCOCC4)nc3)cc2NC(=O)c2cn(C)nc2C(F)(F)F)C1 [Example 283, N-[4-fluoro-5-(2-morpholin-4-ylpyrimidin-5-yl)-2-[(3R)-3-(dimethylamino)pyrrolidin-1-yl]phenyl]-1-methyl-3-(trifluoromethyl)pyrazole-4-carboxamide]
4 | 28.3 nM | COc1cc(Cl)cc(C(=O)Nc2cc(-c3cnc(N4CCOCC4)nc3)c(F)cc2N2C[C@@H](C)N(C)[C@@H](C)C2)c1 [Example 265, 3-chloro-N-[4-fluoro-5-(2-morpholin-4-ylpyrimidin-5-yl)-2-[(3R,5S)-3,4,5-trimethylpiperazin-1-yl]phenyl]-5-methoxybenzamide]
5 | 70.2 nM | CC1CN(c2cc(F)c(-c3ccc(N4CCOCC4)cc3)cc2NC(=O)c2cnn(C)c2)CCN1C (stereo in doubt) [Example 122, N-[4-fluoro-5-(4-morpholin-4-ylphenyl)-2-[(3R)-3,4-dimethylpiperazin-1-yl]phenyl]-1-methylpyrazole-4-carboxamide]
6 | 0.391 nM | C[C@@H]1CN(c2cc(F)c(-c3ccnc(N4CCOCC4)c3)cc2NC(=O)c2c[nH]c(=O)cc2C(F)(F)F)C[C@H](C)N1C [Example 83, N-[4-fluoro-5-(2-morpholin-4-ylpyridin-4-yl)-2-[(3R,5S)-3,4,5-trimethylpiperazin-1-yl]phenyl]-6-oxo-4-(trifluoromethyl)-1H-pyridine-3-carboxamide]
7 | 8.74 nM | Cc1cc(C#N)ncc1-c1cc(NC(=O)c2c[nH]c(=O)cc2C(F)(F)F)c(N2C[C@@H](C)N(C)[C@@H](C)C2)cc1F [Example 269, N-[5-(6-cyano-4-methylpyridin-3-yl)-4-fluoro-2-[(3R,5S)-3,4,5-trimethylpiperazin-1-yl]phenyl]-6-oxo-4-(trifluoromethyl)-1H-pyridine-3-carboxamide]
8 | 113 nM | CC1CN(c2cc(F)c(-c3cnc(N4CCOCC4)nc3)cc2NC(=O)c2n[nH]cc2Cl)CCN1C (stereo in doubt) [Example 183, 4-chloro-N-[4-fluoro-5-(2-morpholin-4-ylpyrimidin-5-yl)-2-[(3R)-3,4-dimethylpiperazin-1-yl]phenyl]-1H-pyrazole-3-carboxamide]
9 | 1.33 nM | C[C@@H]1CN(c2cc(F)c(-c3ccnc(C#N)c3)cc2NC(=O)c2c[nH]c(=O)cc2C(F)(F)F)C[C@H](C)N1C [Example 133, N-[5-(2-cyanopyridin-4-yl)-4-fluoro-2-[(3R,5S)-3,4,5-trimethylpiperazin-1-yl]phenyl]-6-oxo-4-(trifluoromethyl)-1H-pyridine-3-carboxamide]
10 | 0.688 nM | COc1cnc(N2CCC=C(c3cc(NC(=O)c4c[nH]c(=O)cc4C(F)(F)F)c(N4C[C@@H](C)N(C)[C@@H](C)C4)cc3F)C2)nc1 [Example 375, N-[4-fluoro-5-[1-(5-methoxypyrimidin-2-yl)-3,6-dihydro-2H-pyridin-5-yl]-2-[(3R,5S)-3,4,5-trimethylpiperazin-1-yl]phenyl]-6-oxo-4-(trifluoromethyl)-1H-pyridine-3-carboxamide]
11 | 0.31 nM | C[C@@H]1CN(c2ncc(-c3cc(NC(=O)c4ccc(F)cc4C(F)(F)F)c(N4C[C@@H](C)N(C)[C@@H](C)C4)cc3F)cn2)C[C@H](C)N1C [Example 381, 4-fluoro-N-[4-fluoro-2-[(3R,5S)-3,4,5-trimethylpiperazin-1-yl]-5-[2-[(3R,5S)-3,4,5-trimethylpiperazin-1-yl]pyrimidin-5-yl]phenyl]-2-(trifluoromethyl)benzamide]

Same assay, conditions: surface plasmon resonance (SPR); read-out: WDR5 binding affinity (KD)

Row | Kd | Structure (SMILES)
12 | 2.88 nM | C[C@@H]1CN(c2cc(F)c(-c3ncc(C#N)s3)cc2NC(=O)c2c[nH]c(=O)cc2C(F)(F)F)C[C@H](C)N1C [Example 447, N-[5-(5-cyano-1,3-thiazol-2-yl)-4-fluoro-2-[(3R,5S)-3,4,5-trimethylpiperazin-1-yl]phenyl]-6-oxo-4-(trifluoromethyl)-1H-pyridine-3-carboxamide]
13 | 3.12 nM | CC(C)OC(=O)N1CCC=C(c2cc(NC(=O)c3c[nH]c(=O)cc3C(F)F)c(N3C[C@@H](C)N(C)[C@@H](C)C3)cc2F)CC1 [Example 723, propan-2-yl 4-[5-[[4-(difluoromethyl)-6-oxo-1H-pyridine-3-carbonyl]amino]-2-fluoro-4-[(3R,5S)-3,4,5-trimethylpiperazin-1-yl]phenyl]-2,3,6,7-tetrahydroazepine-1-carboxylate]
14 | 1.26 nM | C[C@@H]1CN(c2cc(F)c(C3=CCCN(c4ncco4)C3)cc2NC(=O)c2c[nH]c(=O)cc2C(F)(F)F)C[C@H](C)N1C [Example 643, N-[4-fluoro-5-[1-(1,3-oxazol-2-yl)-3,6-dihydro-2H-pyridin-5-yl]-2-[(3R5S)-3,4,5-trimethylpiperazin-1-yl]phenyl]-6-oxo-4-(trifluoromethyl)-H-pyridine-3-carboxamide]
15 | 16.9 nM | COCCN(C)[C@@H]1CCN(c2cc(F)c(-c3cnc(N4CCOCC4)nc3)cc2NC(=O)c2c[nH]c(=O)cc2C(F)(F)F)C1 [Example 578, N-[4-fluoro-5-(2-morpholin-4-ylpyrimidin-5-yl)-2-[(3R)-3-[2-methoxyethyl(methyl)amino]pyrrolidin-1-yl]phenyl]-6-oxo-4-(trifluoromethyl)-1H-pyridine-3-carboxamide]
16 | 15.5 nM | C[C@@H]1CN(c2cc(F)c(-c3ccc(F)c(C(N)=O)c3)cc2NC(=O)c2cn(C)c(=O)cc2C(F)F)C[C@H](C)N1C [Example 591, N-[5-(3-carbamoyl-4-fluorophenyl)-4-fluoro-2-[(3R,5S)-3,4,5-trimethylpiperazin-1-yl]phenyl]-4-(difluoromethyl)-1-methyl-6-oxopyridine-3-carboxamide]
17 | 0.095 nM | C[C@@H]1CN(c2cc(F)c(C3=CCN(c4ncc(CN(C)C)cn4)CC3)cc2NC(=O)c2c[nH]c(=O)cc2C(F)(F)F)C[C@H](C)N1C [Example 405, N-[5-[1-[5-[(dimethylamino)methyl]pyrimidin-2-yl]-3,6-dihydro-2H-pyridin-4-yl]-4-fluoro-2-[(3R,5S)-3,4,5-trimethylpiperazin-1-yl]phenyl]-6-oxo-4-(trifluoromethyl)-1H-pyridine-3-carboxamide]
18 | 3 nM | CC1CN(c2cc(F)c(-c3ccnc(N4C[C@@H](C)O[C@@H](C)C4)n3)cc2NC(=O)c2ccc(F)cc2C(F)(F)F)CCN1C (stereo in doubt) [Example 739, 4-fluoro-N-[4-fluoro-5-[2-[(2R,6S)-2,6-dimethylmorpholin-4-yl]pyrimidin-4-yl]-2-[(3R)-3,4-dimethylpiperazin-1-yl]phenyl]-2-(trifluoromethyl)benzamide]
